Data published in PubChem BioAssay (NCI).
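These data come from cells grown in 96-well plates and exposed to compound for 48 hours at five concentrations. GI50 = concentration required for 50% inhibition of growth. TGI marks complete inhibition of growth.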

System: MDA-MB-468 breast
Experiment: inhibition of tumour cell growth, NCI panel, 48 h

SMILES	GI50 [nM]	TGI [nM]
COc1cc(OC)c(/C=C/c2ccc3ccccc3[n+]2C)c(OC)c1	161	763
O=C(CN1CCOCC1)NNc1ncnc2ccccc12	3650	15600
Clc1nc(Oc2ccccc2)nc(-c2cn(-c3ccccc3)c3ccccc23)n1	2860	9940
C=CC(=O)N1CCCC(n2nc(-c3ccc(Oc4ccccc4)cc3)c3c(N)ncnc32)C1 (stereo not drawn)	31.9	600
COc1ccc2c(c1)sc1nc(-c3ccccc3)c(-c3ccsc3)n12	1980	5430
CC1=CSC2=NC(c3ccc(Cl)c(Cl)c3)=CC(c3ccc(Cl)cc3)N12 (stereo not drawn)	> 100000	> 100000
COc1cc2nc(-c3ccc(C(F)(F)F)cc3)cc(OCCCN3CCOCC3)c2cc1OC	1240	5710
C#C[C@]1(O)CC[C@H]2[C@@H]3CC=C4c5sc(Nc6cc(Cl)ccn6)nc5CC[C@]4(C)[C@H]3CC[C@@]21C	2190	6610
COc1cccc(-c2nc3sccn3c2-c2ccnc(NCCNC(=O)Nc3cccc(C(F)(F)F)c3)n2)c1	2630	10400
COc1cc(-c2nc3ccc(C)cc3[nH]2)ccc1OCC(=O)N=Nc1c(O)[nH]c2ccccc12	1750	3340
Nc1c(C(=O)c2ccccc2)sc2nc(-c3cccs3)ccc12	200	910
Oc1ccc(Br)cc1Sc1cc(Br)ccc1O	4090	20800
COc1c/c(=C2/C=c3ccccc3=N2)[nH]/c1=C/c1[nH]c(C)cc1C	311	1940
Cc1ccc(C(=O)c2oc3ccc4c(C)cc(=O)oc4c3c2C)cc1	12100	> 100000
COC(=O)CCC/C=C\C[C@H]1C=CC(=O)/C1=C/C[C@@H](O)CCc1cccc(C(F)(F)F)c1	2010	5230
N#CCc1nc(C#N)c(N)o1	> 100000	> 100000
COc1cc(-c2cnn(C)c2)ccc1Nc1ncc2ccnc(N[C@@H](C)C(C)(C)C)c2n1	> 74700	> 100000

SMILES	GI50 [nM]	TGI [nM]
CC(C)c1ccc(Cc2cnc(NC(=O)c3cc(Br)cs3)s2)cc1	1300	8670
COc1ccc(/C=C/c2cc(OC)c(OC)c(OC)c2)cc1NC(=O)/C=C/c1ccc(F)cc1	1780	> 37500
CC[N+](CCCCCCCCCC[N+](CC)(c1ccccn1)c1ccccn1)(c1ccccn1)c1ccccn1	206	1430
O=[N+]([O-])c1ccc2[nH]cc(-c3c4ccsc4cc4[nH]c5ccc([N+](=O)[O-])cc5c34)c2c1	805	2470
Cc1cc(/C=C2\SC(=Nc3ccccc3)N(C3CCCC3)C2=O)c(C)n1-c1ccc(Cl)cc1	48000	> 100000
C=CCn1c(C)nc2cc(Nc3nc(Nc4ccc5nc(C)n(CC=C)c5c4)c4ccccc4n3)ccc21	203	521
O=C(Nc1ccc(Cl)cc1)Nc1ccc(Cl)c(Cl)c1	2610	11300
CCCCCCC/C=C/[C@H]1O[C@]23C(=O)C[C@@]4(C[C@@H](OC5OC(CO)C(O)C(O)C5O)C[C@@H]4[C@H]2C=C1C)OC3=O (stereo partly drawn)	4580	13500
CN1CCN(Cc2ccc(NC(=O)c3cncc(C#Cc4cnc(N)c5ccc(F)cc45)c3)cc2C(F)(F)F)CC1	1770	6670
COc1cc(/C=C/c2cc(C(F)(F)F)[nH]c(=O)n2)ccc1OCc1ccccc1F	2970	14400
CC1(C)C=CC[C@]2(C)[C@H]3CC[C@@H]4[C@H]5[C@H](C(=O)/C=C/c6cccnc6)CC[C@]5(CO)CC[C@@]4(C)[C@]3(C)CC[C@@H]12	1340	2880
CC[N+](CC)=c1ccc2nc3c(cc(N)c4ccccc43)oc-2c1	21.9	132
CC1=CC[C@@H]2CC[C@]3(C)[C@H](CC[C@@H]4[C@@]5(C)CCCNC(C)(C)[C@@H]5CC[C@]43C)[C@H]2[C@@H]1C	1680	3300
CCOC(=O)[C@@H](C)C[C@H](Cc1ccccc1)NC(=O)c1csc([C@@H](C[C@H](C(C)C)N(C)C(=O)[C@@H](NC(=O)[C@H]2C[C@H](O[Si](C)(C)C(C)(C)C)CCN2C)C(C)C)OC(C)=O)n1	75.4	5450
CCOc1ccc(/C=C/C(=O)c2ccccc2)cc1	17300	34100
CCCCNc1nc(NC(C)(C)C)nc(NC(C)(C)C)n1	1490	34800
O=C(Nc1cccc(C(F)(F)F)c1)c1cc(-c2ccc(F)cc2F)ccc1O	2220	6840
